Experiments:
[1] = test system: NHAC; assay: Effect of cycloheximide on asporin gene expression induction by TGF-β1 in NHAC; format: cell-based, human
Protocol: (§1) A time course of the expression of the asporin gene by TGF-β1 in NHAC was examined as described below. Cells were inoculated to a 12-well plate at 1×10^5 cells/well, and cultured in a DMEM/F12 containing 10% FBS until they became confluent. The medium was exchanged with a DMEM/F12 containing 0.2% FBS, and the cells were cultured for 24 hours, after which TGF-β1 (10 ng/ml) was added, total RNA was extracted over time, and the expression levels of the asporin and GAPDH genes were examined. As a result, the expression level of the asporin gene maximized when the cells were cultured in the presence of TGF-β1 (10 ng/ml) for 12 hours, and thereafter the expression level decreased over time (FIG. 46).
In the experimental system for asporin gene-expression induction by TGF-β1 used in the method described in Example 54, the effect of CHX (Sigma) (10 μM), a protein synthesis inhibitor, on the induction of the expression of the asporin gene (12 hours), when added 30 minutes before, simultaneously with, or 2 hours or 6 hours after addition of TGF-β1 (10 ng/ml), was examined. As a result, when CHX was added 30 minutes before, and simultaneously with, the addition of TGF-β1, asporin induction by TGF-β1 was inhibited (FIG. 48).

[2] = test system: ATDC5; assay: Chondrocyte differentiation experiments in ATDC5 with CaM inhibitor; format: cell-based, mouse; details: W-7 20 μM in insulin-containing differentiation medium
Text: The embryonic tumor-derived cloned cell line ATDC5 is an in vitro chondrocyte differentiation model that enables the reproduction of all differentiation stages of chondrocytes, from initial differentiation to terminal differentiation, in the presence of insulin. To analyze the role of calmodulin (CaM) in chondrocyte differentiation, the present inventors cultured ATDC5 in the presence of W-7, which is a CaM inhibitor, and quantified the expression levels of chondrocyte differentiation markers, i.e., the type II collagen gene (Col2a1), the aggrecan gene (Agc1), and the type X collagen gene (Col10a1). […] Medium exchange was performed every two days; cultivation was continued for up to 22 days, counted from the day of exchange to the differentiation medium. […] Quantitative real-time PCR was performed using ABI PRISM 7700 (Applied Biosystems). PCR reactions were performed using a system of a final volume of 20 μl [reverse transcription reaction mixture 1 μl, QuantiTect SYBR Green PCR (QIAGEN) 10 μl, 10 μM forward primer 0.6 μl, 10 μM reverse primer 0.6 μl, […]]. […] The copy number of the target gene in each sample was calculated from a calibration curve prepared using serial dilutions of target gene DNA of a known copy number. The expression level of each gene was corrected by total RNA content calculated with the expression level of Gapdh as the index.

[3] = test system: RCJ3.1C5.18 cells; assay: Ionomycin stimulation experiments in chondrocyte precursor cell line RCJ3.1C5.18; format: cell-based, rat; details: ionomycin 2 μM, W-7 0 to 10 μM, 24 hours
Protocol: RCJ3.1C5.18 cells are cells having characters as chondrocyte precursor cells, and showing increased expression of the type II collagen gene and the aggrecan gene in response to stimulation with ionomycin, which is a reagent that raises intracellular calcium concentrations. The present inventors analyzed the involvement of CaM in this reaction using W-7, which is a CaM inhibitor. For ordinary culture, DMEM (Sigma) comprising 10% FBS and antibiotics (100 U/ml penicillin G and 100 μg/ml streptomycin) was used. The stimulation experiments were performed by the procedure shown below. Cells were inoculated to a 12-multiwell plate at 1×10^5 cells/well. […] Quantitative real-time PCR was performed using ABI PRISM 7700 (Applied Biosystems). PCR reactions were performed using a system of a final volume of 20 μl [reverse transcription reaction mixture 1 μl, QuantiTect SYBR Green PCR (QIAGEN) 10 μl, 10 μM forward primer 0.6 μl, 10 μM reverse primer 0.6 μl, […]]. […] The copy number of the target gene in each sample was calculated from a calibration curve prepared using serial dilutions of target gene DNA of a known copy number. The expression level of each gene was corrected by total RNA content calculated with the expression level of GADPH as the index.

[4] = test system: NHAC-kn; assay: Induction with TGF-β1 of asporin gene expression in NHAC-kn; format: cell-based, human; details: TGF-β1 10 ng/ml, 24 hours
Protocol: (§2) In various cartilage lineage cell lines, the potential of TGF-β1 for inducing asporin gene expression was examined by the method described below. OUMS-27 was cultured in a DMEM containing 10% FBS, CS-OKB was cultured in an RPMI1640 containing 10% FBS, and normal human articular chondrocytes of knee joint (NHAC-kn, P7, monolayer, Clonetics) were cultured using Chondrocyte Growth Medium (CGM, Clonetics). ATDC5 was cultured using the medium 1-2 described in Example 13. For the induction experiments in the cartilage lineage cell lines, cells were cultured in the above-described media until they became confluent, after which the medium was exchanged with a medium containing 0.2% FBS, and the cells were cultured for 12 hours; TGF-β1 (10 ng/ml) was added, and the cells were further cultured for 24 hours. RNA extraction, cDNA synthesis, and real-time PCR were performed by the methods described in Example 12.

[5] = test system: OUMS-27; assay: Induction with TGF-β1 of asporin gene expression in OUMS-27; format: cell-based, human; details: TGF-β1 10 ng/ml, 24 hours
Protocol: as §2

[6] = test system: ATDC5; assay: Induction with TGF-β1 of asporin gene expression in ATDC5; format: cell-based, mouse; details: TGF-β1 10 ng/ml, 24 hours
Protocol: as §2

[7] = test system: NHAC; assay: Articular chondrocyte differentiation maintenance in redifferentiated NHAC; format: cell-based, human; details: 7 days, TGF-β1 40 ng/ml, asporin 20 μg/ml where added
Protocol: NHAC was redifferentiated by alginate beads culture for 2 weeks using a chondrocyte differentiation medium (CDM) manufactured by Cambrex Company according to the protocol attached. These redifferentiated cells were inoculated to a Lab-Tek II chamber slide (Nunc), a DMEM/F12 containing 5% FBS, ITS (Sigma), and TGF-β1 (40 ng/ml) was added, and the cells were allowed to maintain the degree of differentiation thereof; the effects of addition of asporin (20 μg/ml) on the cell morphology and extracellular proteoglycan accumulation were examined.

[8] = test system: NHAC; assay: Time course of asporin gene expression by TGF-β1 in NHAC; format: cell-based, human; details: TGF-β1 10 ng/ml
Protocol: as §1

[9] = test system: NHAC; assay: MTT assay of TGF-β1-stimulated cell growth in NHAC; format: cell-based, human; details: TGF-β1 40 ng/ml alone, 5 days
Protocol: NHAC was inculated to a 12-well plate at 1×10^5 cells/well, and cultured in a DMEM/F12 containing 10% FBS supplemented with TGF-β1 (40 ng/ml) and asporin (5 or 20 μg/ml) for 5 days, after which the degree of cell growth was examined by the MTT assay method described below. Specifically, 3-(4,5-dimethyl-2-thiazolyl)-2,5-diphenyl-2H-tetrazolium bromide (MTT, Dojindo Laboratory) was dissolved in DMEM/F12 to obtain a concentration of 1 mg/ml, the solution was added to the cells after the medium was removed by suction, and the cells were cultured at 37° C. for 1 hour. Thereafter the medium containing MTT was discarded, and the cells were subjected to extraction treatment using a Lysis reagent (86% isopropanol, 40 mM hydrochloric acid, 1% SDS). This cell lysate was transferred to a 96-well plate, and the absorbance at 550 nm was measured using a microplate reader.

[10] = target: TGF-β1 (Homo sapiens, UniProt P01137); assay: Microplate binding assay, inhibition of biotinylated decholine binding to TGF-β1 solid phase; details: TGF-β1-coated microplate
Chain of TGF-β1 (P01137 279-390 limits assumed, species assumed): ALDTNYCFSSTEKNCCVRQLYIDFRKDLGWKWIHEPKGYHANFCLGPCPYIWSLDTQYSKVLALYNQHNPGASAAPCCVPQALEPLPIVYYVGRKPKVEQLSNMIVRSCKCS
Protocol: A binding assay of mouse asporin and TGF-β using the microplate assay method was performed with the degree of inhibition of binding of biotinylated decholine and TGF-β as the index, as described below. To a Maxisorp 96-well microplate of Nunc, a 1 μg/ml TGF-β1 solution prepared with 0.05 M sodium carbonate buffer (pH 9.6) was dispensed at 100 μl/well, and the microplate was coated with the solution at 4° C. overnight. The TGF-β-coated wells were blocked in a 200 μl/well of binding buffer (50 mM Tris (pH 7.4), 150 mM NaCl, 2% BSA, 0.05% Tween 20) at 37° C. for 3 hours. The wells were once washed with a 400 μl/well of binding buffer, after which biotinylated decholine and non-labeled protein, prepared with the binding buffer, were added to obtain a total quantity of 100 μl per well, and the microplate was incubated at 37° C. for 6 hours. The wells were washed with a 400 μl/well of binding buffer 3 times, after which streptavidin-HRP (R&D System), diluted 200 fold with the binding buffer, was added at 100 μl/well, and the microplate was incubated at room temperature for 20 minutes. […] The reaction was stopped by the direct addition of 1 M phosphoric acid at 100 μl/well, and absorbance at 415 nm (control: 750 nm) was measured using Ultramark Microplate Imaging System (BIO-RAD). […]

C[C@@H]1C[C@@H]([C@H](O)CC2CC(=O)NC(=O)C2)C(=O)[C@@H](C)C1 [CHX, cycloheximide]
asporin induction by TGF-β1 ([1]; CHX 10 μM added 30 minutes before or simultaneously with TGF-β1 10 ng/ml): inhibited
asporin induction by TGF-β1 ([1]; CHX 10 μM added at 2 hours or thereafter following TGF-β1): induction of asporin gene expression by TGF-β1 was observed

NCCCCCCNS(=O)(=O)c1cccc2c(Cl)cccc12 [W-7]
increases in the expression levels of Col2a1 and Agc1 ([2]; real-time PCR): suppressed to about half
expression level of Col10a1 ([2]; up to Day 22): further rose
ionomycin-induced expression of the type II collagen gene and the aggrecan gene [3]: suppressed dose-dependently

TGF-β1: TGF-β isoform, regulatory factor of cartilage differentiation used as stimulus
expression of the asporin gene with TGF-β1 stimulation [4]: significant increases
expression of the asporin gene with TGF-β1 stimulation [5]: significant increases
expression of asporin with TGF-β1 stimulation [6]: tended to be slightly suppressed
Safranine-O stainability (extracellular proteoglycan) [7]: positive
cell morphology [7]: egg-like morphology
culture time at which the expression level of the asporin gene maximized [8]: 12 h
expression level of asporin after 3 days in the presence of TGF-β1 ([8]; vs control): smaller than that without induction
cell growth of NHAC (MTT, absorbance at 550 nm) [9]: increased

B1: Fr.18-21: partially purified product of Escherichia coli recombinant S-tagged mouse asporin (protein, UniProt Q99MQ4 33-373, looked up)
Asporin: DMEDTDDDDNDDDDNSLFPTKEPVNPFFPFDLFPTCPFGCQCYSRVVHCSDLGLTSVPNNIPFDTRMVDLQNNKIKEIKENDFKGLTSLYALILNNNKLTKIHPKTFLTTKKLRRLYLSHNQLSEIPLNLPKSLAELRIHDNKVKKIQKDTFKGMNALHVLEMSANPLENNGIEPGAFEGVTVFHIRIAEAKLTSIPKGLPPTLLELHLDFNKISTVELEDLKRYRELQRLGLGNNRITDIENGTFANIPRVREIHLEHNKLKKIPSGLQELKYLQIIFLHYNSIAKVGVNDFCPTVPKMKKSLYSAISLFNNPMKYWEIQPATFRCVLGRMSVQLGNVGK
modifications: S-tag; partially purified fraction
notes: partially purified product of Escherichia coli recombinant S-tagged mouse asporin
inhibition of binding of biotinylated decholine to TGF-β1 [10]: observed with dependence on protein content

B2: S-tagged mouse asporin: S-tagged mature mouse asporin expressed in E. coli from pET29b-MASP, contained in Fr.18-21 (protein)
chain: B1 Asporin
modifications: left off: small tags and cut ends
binding of S-tagged mouse asporin to the TGF-β1 solid phase [10]: binding of S-tagged mouse asporin was observed
